Source: ChEMBL document CHEMBL1122105, “Synthesis, decomposition kinetics, and preliminary toxicological studies of pure N-acetyl-p-benzoquinone imine, a proposed toxic metabolite of acetaminophen” (J Med Chem, 1982)

Columns and labels:
[1] = Half life was determined; assay type: ADME; settings: rat
[2] = Second order rate constant was determined; assay type: functional
[3] = Rate constant was determined; assay type: functional
[4] = Toxicity in mice 24 hr after ip administration; assay type: organism-based; settings: mouse, in vivo

## CC(=O)N=C1C=CC(=O)C=C1
[1]
  half-life: 11 min
[2]
  Second order: 0.625 M/s
[3]
  Rate constant: 0.00011 M/s
[4]
  LD50 at 24 h: 20 mg/kg

## CC(=O)Nc1ccc(O)cc1 [ACETAMINOPHEN]
[4]
  LD50 at 24 h: 500 mg/kg
